Reference: ChEMBL document CHEMBL1201862, “PubChem BioAssay data set” (2004)
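Assay format: 96-well plates, 48-hour exposure. The concentration for 50% growth inhibition is given as GI50.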 Activity calls are given as the source filed them. Cut-off read from the data, not from the text of the source: active = GI50 up to about 1.1 µM and inactive = higher.

Assays:
Test in all cases: inhibition of tumour cell growth, NCI panel, 48 h
BT-549 = tested on: BT-549
RPMI-8226 = tested on: RPMI-8226
TK-10 = tested on: TK-10
ACHN = tested on: ACHN
A498 = tested on: A498
SW-620 = tested on: SW-620
OVCAR-8 = tested on: OVCAR-8
SR = tested on: SR
NCI-H460 = tested on: NCI-H460
KM12 = tested on: KM12
DU-145 = tested on: DU-145
U-251 = tested on: U-251
OVCAR-4 = tested on: OVCAR-4
NCI/ADR-RES = tested on: NCI/ADR-RES
SF-539 = tested on: SF-539
HCT-15 = tested on: HCT-15
CAKI-1 = tested on: CAKI-1
Malme-3M = tested on: Malme-3M
Hs-578T = tested on: Hs-578T

| SMILES | GI50 (BT-549) | GI50 (RPMI-8226) | GI50 (TK-10) | GI50 (ACHN) | GI50 (A498) | GI50 (SW-620) | GI50 (OVCAR-8) | GI50 (SR) | GI50 (NCI-H460) | GI50 (KM12) | GI50 (DU-145) | GI50 (U-251) | GI50 (OVCAR-4) | GI50 (NCI/ADR-RES) | GI50 (SF-539) | GI50 (HCT-15) | GI50 (CAKI-1) | GI50 (Malme-3M) | GI50 (Hs-578T) |
| --- | --- | --- | --- | --- | --- | --- | --- | --- | --- | --- | --- | --- | --- | --- | --- | --- | --- | --- | --- |
| COc1ccc2nc3c4c(nccc4c2c1)-c1ncccc1C3=O | 0.109 µM (active) | 0.0652 µM (active) | 0.18 µM (active) | 0.0116 µM (active) | 0.0916 µM (active) | 0.0121 µM (active) | 0.034 µM (active) | 0.00542 µM (active) | 0.0261 µM (active) | 0.0748 µM (active) | 0.00927 µM (active) | 0.0319 µM (active) | 0.439 µM (active) | 0.201 µM (active) | 0.0769 µM (active) | 0.005 µM | 0.109 µM (active) | 0.0791 µM (active) | – |
| Cc1ccc(S(=O)(=O)NCCSS(=O)(=O)c2ccc(C)cc2)cc1 | – | – | > 100 µM (inactive) | 32.8 µM (inactive) | 11.3 µM (inactive) | 19.5 µM (inactive) | 37.9 µM (inactive) | 13.9 µM (inactive) | 35.4 µM (inactive) | 28.1 µM (inactive) | 42.6 µM (inactive) | 25.5 µM (inactive) | > 100 µM (inactive) | 25.8 µM (inactive) | – | 18.7 µM | – | – | 96.4 µM (inactive) |
| COC(=O)C1=C(O)CCCC(C2CCCCC(=O)C2C(=O)OC)=C1 (stereo not given) | 78.9 µM (inactive) | 56.1 µM (inactive) | > 100 µM (inactive) | 37.2 µM (inactive) | 18.4 µM (inactive) | 81.8 µM (inactive) | 45.5 µM (inactive) | 24.7 µM (inactive) | 13.9 µM (inactive) | 94.6 µM (inactive) | 29.9 µM (inactive) | 29 µM (inactive) | > 100 µM (inactive) | > 100 µM (inactive) | 24.5 µM (inactive) | 87.5 µM | 31.1 µM (inactive) | – | – |
| Cc1ccc(-c2ccc(Nc3c4ccccc4nc4ccccc34)cc2)cn1 | – | 1.92 µM (inactive) | 9.14 µM (inactive) | 2.32 µM (inactive) | – | 4.01 µM (inactive) | 4.81 µM (inactive) | 2.07 µM (inactive) | 1.44 µM (inactive) | 3.8 µM (inactive) | 3.77 µM (inactive) | – | – | 8.89 µM (inactive) | 3.85 µM (inactive) | 3.75 µM | 2.72 µM (inactive) | – | 5 µM (inactive) |
| c1ccc2c(c1)c1c(n2CCOCCN2CCOCC2)CCCC1 | – | 21 µM (inactive) | 18.4 µM (inactive) | 30.8 µM (inactive) | 34.1 µM (inactive) | 34.1 µM (inactive) | 36.7 µM (inactive) | 30.3 µM (inactive) | 27.5 µM (inactive) | 31.8 µM (inactive) | > 100 µM (inactive) | 23.6 µM (inactive) | 14.3 µM (inactive) | 16.3 µM (inactive) | 86.1 µM (inactive) | 36.5 µM | 15.2 µM (inactive) | 13.8 µM (inactive) | 57 µM (inactive) |
| O=C(O)c1cccc2c1/C(=N/Nc1ccccc1)CC2 | – | > 100 µM (inactive) | > 100 µM (inactive) | > 100 µM (inactive) | > 100 µM (inactive) | > 100 µM (inactive) | > 100 µM (inactive) | > 100 µM (inactive) | 32.1 µM (inactive) | > 100 µM (inactive) | > 100 µM (inactive) | > 100 µM (inactive) | > 100 µM (inactive) | > 100 µM (inactive) | > 100 µM (inactive) | > 100 µM | 26.1 µM (inactive) | – | > 100 µM (inactive) |
| COC1(OC)c2no[n+]([O-])c2CCC1O (stereo not given) | – | > 100 µM (inactive) | > 100 µM (inactive) | > 100 µM (inactive) | > 100 µM (inactive) | > 100 µM (inactive) | > 100 µM (inactive) | > 100 µM (inactive) | > 100 µM (inactive) | > 100 µM (inactive) | > 100 µM (inactive) | – | > 100 µM (inactive) | > 100 µM (inactive) | > 100 µM (inactive) | > 100 µM | > 100 µM (inactive) | > 100 µM (inactive) | > 100 µM (inactive) |
| CN(C)c1ccc(/C=C/C(=O)CC(=O)/C=C/c2ccc(N(C)C)cc2)cc1 | – | > 100 µM (inactive) | > 100 µM (inactive) | > 100 µM (inactive) | – | > 100 µM (inactive) | > 100 µM (inactive) | 36.2 µM (inactive) | > 100 µM (inactive) | > 100 µM (inactive) | > 100 µM (inactive) | > 100 µM (inactive) | > 100 µM (inactive) | > 100 µM (inactive) | > 100 µM (inactive) | > 100 µM | > 100 µM (inactive) | > 100 µM (inactive) | > 100 µM (inactive) |
| CC1=CC(O)(c2ccccc2)C(N2CCOCC2)N1O (stereo not given) | > 100 µM (inactive) | > 100 µM (inactive) | > 100 µM (inactive) | > 100 µM (inactive) | – | > 100 µM (inactive) | > 100 µM (inactive) | > 100 µM (inactive) | > 100 µM (inactive) | > 100 µM (inactive) | – | > 100 µM (inactive) | > 100 µM (inactive) | > 100 µM (inactive) | > 100 µM (inactive) | > 100 µM | > 100 µM (inactive) | > 100 µM (inactive) | > 100 µM (inactive) |
| C#CC1(O)CCCCCCCCC2(CCCCCCCC1)OCCO2 | – | 0.414 µM (active) | 20.7 µM (inactive) | 13.8 µM (inactive) | 14.7 µM (inactive) | 18.8 µM (inactive) | 19.4 µM (inactive) | 12.3 µM (inactive) | 21.3 µM (inactive) | 18.6 µM (inactive) | 17.3 µM (inactive) | 17.1 µM (inactive) | 4.81 µM (inactive) | 18.1 µM (inactive) | 18 µM (inactive) | 18 µM | 12 µM (inactive) | 19.5 µM (inactive) | 17.8 µM (inactive) |
| COc1cc(OC)c(C2c3cc4c(cc3OC(N3CCCC3)C2C)OCO4)c(OC)c1 (stereo not given) | – | 16.4 µM (inactive) | 19.1 µM (inactive) | 5.11 µM (inactive) | – | 9.59 µM (inactive) | 16.3 µM (inactive) | 11.1 µM (inactive) | 13.2 µM (inactive) | 10.6 µM (inactive) | 13 µM (inactive) | – | – | 15.2 µM (inactive) | 12.1 µM (inactive) | 6.11 µM | – | – | 3.77 µM (inactive) |
| CC1=NN(c2cccc(Cl)c2)C2(SCC(=O)N2c2nc3ccccc3s2)C1=CC=Cc1ccccc1 (stereo not given) | – | 23 µM (inactive) | 62.4 µM (inactive) | 22.3 µM (inactive) | 20.7 µM (inactive) | 26.3 µM (inactive) | 35.6 µM (inactive) | 16.4 µM (inactive) | 30.5 µM (inactive) | 31.2 µM (inactive) | 21.3 µM (inactive) | 17.8 µM (inactive) | 37.8 µM (inactive) | 34.8 µM (inactive) | 44.1 µM (inactive) | 29.2 µM | 31.1 µM (inactive) | – | 27.7 µM (inactive) |
| CCCCCCCC(CC(=O)NC(CO)C(=O)NC(CO)CC(C)C)OC(=O)CC(CCCCCCC)OC(=O)CC(CCCCCCC)OC1OC(C)C(O)C(OC2OC(C)C(OC(C)=O)C(O)C2O)C1O (stereo not given) | 6.17 µM (inactive) | – | 16.1 µM (inactive) | 15.7 µM (inactive) | 11.3 µM (inactive) | 10.7 µM (inactive) | 9.27 µM (inactive) | 2.55 µM (inactive) | 3.97 µM (inactive) | 3.55 µM (inactive) | 11.8 µM (inactive) | 4.41 µM (inactive) | 5.01 µM (inactive) | – | 11 µM (inactive) | – | 15.2 µM (inactive) | 10.6 µM (inactive) | 4.22 µM (inactive) |
| O=C1c2ccccc2C(=O)c2sc(Nc3ccccc3C(F)(F)F)nc21 | – | 13 µM (inactive) | 19.7 µM (inactive) | 16.6 µM (inactive) | 15.3 µM (inactive) | 6.1 µM (inactive) | – | 4.16 µM (inactive) | 21.8 µM (inactive) | 10.2 µM (inactive) | 16.9 µM (inactive) | 10.6 µM (inactive) | – | – | 19.9 µM (inactive) | 7.29 µM | 8.77 µM (inactive) | 12.4 µM (inactive) | 11.9 µM (inactive) |
| Cc1nc2ccccc2c(=O)n1/N=C(\N=N\c1ccc(Cl)cc1)c1cccc(-c2ccco2)c1 | – | 19.1 µM (inactive) | 51.5 µM (inactive) | 30.5 µM (inactive) | 61.8 µM (inactive) | 42.5 µM (inactive) | 33.1 µM (inactive) | – | 37.7 µM (inactive) | – | – | 27.5 µM (inactive) | – | – | 28.6 µM (inactive) | 30.2 µM | 25.5 µM (inactive) | – | – |
| CCCCNc1nc(C#N)c(N)s1 | – | > 100 µM (inactive) | > 100 µM (inactive) | > 100 µM (inactive) | – | > 100 µM (inactive) | > 100 µM (inactive) | > 100 µM (inactive) | > 100 µM (inactive) | > 100 µM (inactive) | – | > 100 µM (inactive) | > 100 µM (inactive) | – | > 100 µM (inactive) | > 100 µM | > 100 µM (inactive) | > 100 µM (inactive) | – |
| COc1cccc(C2c3cc4c(cc3OC(NNS(=O)(=O)c3ccc(C)cc3)C2C)OCO4)c1O (stereo not given) | 19.7 µM (inactive) | 6.31 µM (inactive) | 31.8 µM (inactive) | 23.6 µM (inactive) | 25.5 µM (inactive) | 23 µM (inactive) | 1.69 µM (inactive) | 6.79 µM (inactive) | 21.8 µM (inactive) | 20.3 µM (inactive) | 30.5 µM (inactive) | 22.3 µM (inactive) | – | – | 21.6 µM (inactive) | 23.5 µM | 24.2 µM (inactive) | 23.8 µM (inactive) | 12.8 µM (inactive) |
| CC1(C)C(=S)C(C)(C)C1=S | – | > 100 µM (inactive) | > 100 µM (inactive) | > 100 µM (inactive) | – | > 100 µM (inactive) | – | > 100 µM (inactive) | > 100 µM (inactive) | > 100 µM (inactive) | > 100 µM (inactive) | > 100 µM (inactive) | > 100 µM (inactive) | > 100 µM (inactive) | > 100 µM (inactive) | > 100 µM | – | > 100 µM (inactive) | > 100 µM (inactive) |
